Legend:
Type in all cases: in vivo
[1] = tested on: waterhemp_RES2, (ALS & HPPD resistant common waterhemp, Amaranthus rudis); test: Test E postemergence greenhouse test, plant response rating 0-100; details: scale 0 to 100
Method in brief: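 Resistant waterhemp biotypes grown in peat/vermiculite medium and treated postemergence at 2–18 cm height (1- to 4-leaf stage). Kept in greenhouse 14 to 21 days, then visually rated against untreated controls on a 0–100 scale (0 no effect, 100 complete control).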

[2] = tested on: palmer pigweed (Amaranthus palmeri); test: Test E pre-/postemergence greenhouse test, plant response rating 0-100; details: Postemergence, scale 0 to 100
Method in brief: (§1)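 Visual control score, 0–100 relative to untreated plants, recorded 14–21 days after spraying. Treatments: preemergence on silt loam seedbeds and postemergence at the 1- to 4-leaf stage, with compound in surfactant-containing solvent.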

[3] = tested on: Brazilian crabgrass (Digitaria horizontalis); test: as above; details: Postemergence, scale 0 to 100
Method in brief: as §1

[4] = tested on: waterhemp (common waterhemp, Amaranthus rudis); test: as above; details: Postemergence, scale 0 to 100
Method in brief: as §1

corn (Zea mays) = test: as above; details: Postemergence, scale 0 to 100
Method in brief: as §1

[5] = tested on: field bindweed (Convolvulus arvensis); test: as above; details: Postemergence, scale 0 to 100
Method in brief: as §1

[6] = tested on: arrowleaf sida (Sida rhombifolia); test: as above; details: Postemergence
Method in brief: as §1

[7] = tested on: Italian ryegrass (Lolium multiflorum); test: as above; details: Postemergence, scale 0 to 100
Method in brief: as §1

[8] = tested on: dayflower (Virginia (VA) dayflower, Commelina virginica); test: as above; details: Postemergence, scale 0 to 100
Method in brief: as §1

[9] = tested on: hairy beggarticks (Bidens pilosa); test: as above; details: Postemergence, scale 0 to 100
Method in brief: as §1

[10] = tested on: wild poinsettia (Euphorbia heterophylla); test: as above; details: Postemergence, scale 0 to 100
Method in brief: as §1

[11] = tested on: fall panicum (Panicum dichotomiflorum); test: as above; details: Postemergence, scale 0 to 100
Method in brief: as §1

## Cn1cc(C(=O)c2cccs2)c(-c2cc(Cl)cc(Cl)c2)n1 [Compound 17]
[1]; 31 g ai/ha
  Plant response rating, Waterhemp_RES2: 60
[1]; 62 g ai/ha
  Plant response rating, Waterhemp_RES2: 75
[1]; 125 g ai/ha
  Plant response rating, Waterhemp_RES2: 80
[1]; 250 g ai/ha
  Plant response rating, Waterhemp_RES2: 85
[1]; 500 g ai/ha
  Plant response rating, Waterhemp_RES2: 95
[2]; 31 g ai/ha
  Plant response rating, Pigweed, Palmer: 60
[2]; 62 g ai/ha
  Plant response rating, Pigweed, Palmer: 70
[2]; 125 g ai/ha
  Plant response rating, Pigweed, Palmer: 80
[2]; 250 g ai/ha
  Plant response rating, Pigweed, Palmer: 85
[2]; 500 g ai/ha
  Plant response rating, Pigweed, Palmer: 95
[3]; 31 g ai/ha
  Plant response rating, Crabgrass, Brazil: 0
[3]; 62 g ai/ha
  Plant response rating, Crabgrass, Brazil: 0
[3]; 125 g ai/ha
  Plant response rating, Crabgrass, Brazil: 0
[3]; 250 g ai/ha
  Plant response rating, Crabgrass, Brazil: 0
[3]; 500 g ai/ha
  Plant response rating, Crabgrass, Brazil: 15
[4]; 31 g ai/ha
  Plant response rating, Waterhemp: 50
[4]; 62 g ai/ha
  Plant response rating, Waterhemp: 80
[4]; 125 g ai/ha
  Plant response rating, Waterhemp: 85
[4]; 250 g ai/ha
  Plant response rating, Waterhemp: 90
[4]; 500 g ai/ha
  Plant response rating, Waterhemp: 95
Corn (Zea mays); 31 g ai/ha
  Plant response rating, Corn: 0
Corn (Zea mays); 62 g ai/ha
  Plant response rating, Corn: 0
Corn (Zea mays); 125 g ai/ha
  Plant response rating, Corn: 0
Corn (Zea mays); 250 g ai/ha
  Plant response rating, Corn: 0
Corn (Zea mays); 500 g ai/ha
  Plant response rating, Corn: 0
[5]; 31 g ai/ha
  Plant response rating, Field Bindweed: 0
[5]; 62 g ai/ha
  Plant response rating, Field Bindweed: 10
[5]; 125 g ai/ha
  Plant response rating, Field Bindweed: 20
[5]; 250 g ai/ha
  Plant response rating, Field Bindweed: 30
[5]; 500 g ai/ha
  Plant response rating, Field Bindweed: 30
[6]; 31 g ai/ha, scale 0 to 100
  Plant response rating, Arrowleaf Sida: 60
[6]; 62 g ai/ha, scale 0 to 100
  Plant response rating, Arrowleaf Sida: 70
[6]; 125 g ai/ha, scale 0 to 100
  Plant response rating, Arrowleaf Sida: 75
[6]; 250 g ai/ha, scale 0 to 100
  Plant response rating, Arrowleaf Sida: 80
[6]; 500 g ai/ha, scale 0 to 100 (0 no effect, 100 complete control)
  Plant response rating, Arrowleaf Sida: 85
[7]; 31 g ai/ha
  Plant response rating, Ryegrass, Italian: 0
[7]; 62 g ai/ha
  Plant response rating, Ryegrass, Italian: 0
[7]; 125 g ai/ha
  Plant response rating, Ryegrass, Italian: 0
[7]; 250 g ai/ha
  Plant response rating, Ryegrass, Italian: 0
[7]; 500 g ai/ha
  Plant response rating, Ryegrass, Italian: 0
[8]; 31 g ai/ha
  Plant response rating, Dayflower, VA: 0
[8]; 62 g ai/ha
  Plant response rating, Dayflower, VA: 0
[8]; 125 g ai/ha
  Plant response rating, Dayflower, VA: 0
[8]; 250 g ai/ha
  Plant response rating, Dayflower, VA: 0
[8]; 500 g ai/ha
  Plant response rating, Dayflower, VA: 0
[9]; 31 g ai/ha
  Plant response rating, Beggarticks: 5
[9]; 62 g ai/ha
  Plant response rating, Beggarticks: 25
[9]; 125 g ai/ha
  Plant response rating, Beggarticks: 35
[9]; 250 g ai/ha
  Plant response rating, Beggarticks: 40
[9]; 500 g ai/ha
  Plant response rating, Beggarticks: 60
[10]; 31 g ai/ha
  Plant response rating, Poinsettia, Wild: 0
[10]; 62 g ai/ha
  Plant response rating, Poinsettia, Wild: 0
[10]; 125 g ai/ha
  Plant response rating, Poinsettia, Wild: 0
[10]; 250 g ai/ha
  Plant response rating, Poinsettia, Wild: 20
[10]; 500 g ai/ha
  Plant response rating, Poinsettia, Wild: 30
[11]; 31 g ai/ha
  Plant response rating, Panicum, Fall: 0
[11]; 62 g ai/ha
  Plant response rating, Panicum, Fall: 0
[11]; 125 g ai/ha
  Plant response rating, Panicum, Fall: 0
[11]; 250 g ai/ha
  Plant response rating, Panicum, Fall: 0
[11]; 500 g ai/ha
  Plant response rating, Panicum, Fall: 0
